Columns and labels:
Type in all cases: cell-based
[1] = target: T1, Sestrin2/GATOR2 interaction (Homo sapiens, UniProt P58004); assay: Intact cells-based Sestrin2/GATOR2 protein-protein interaction assay, Flag-WDR24 293T cells; conditions: 10 minutes
T1 construct: endogenous in cells; host or cells: Flag-WDR24 293T (HEK293T) cells
T1 sequence (P58004 1-480): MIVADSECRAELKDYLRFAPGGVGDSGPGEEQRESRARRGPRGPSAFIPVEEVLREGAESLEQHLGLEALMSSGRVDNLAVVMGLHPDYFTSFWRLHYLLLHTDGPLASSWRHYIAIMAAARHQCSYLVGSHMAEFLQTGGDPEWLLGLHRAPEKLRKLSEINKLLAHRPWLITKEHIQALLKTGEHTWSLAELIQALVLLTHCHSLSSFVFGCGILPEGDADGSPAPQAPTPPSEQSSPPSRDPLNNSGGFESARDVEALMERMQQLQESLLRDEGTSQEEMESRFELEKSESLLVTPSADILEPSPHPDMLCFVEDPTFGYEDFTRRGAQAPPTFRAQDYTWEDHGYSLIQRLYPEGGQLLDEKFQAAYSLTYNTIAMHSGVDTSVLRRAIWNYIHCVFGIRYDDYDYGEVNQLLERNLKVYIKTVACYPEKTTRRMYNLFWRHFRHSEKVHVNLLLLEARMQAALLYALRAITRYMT
Experimental: Flag-WDR24 293T cells were washed and placed in leucine-free DMEM supplemented 10% dFBS for 50 minutes followed by treatment with NV-5297, leucine or vehicle for 10 minutes. Cells were rinsed once with ice-cold PBS and immediately lysed with Triton lysis buffer (1% Triton, 10 mM β-glycerol phosphate, 10 mM pyrophosphate, 40 mM Hepes pH 7.4, 2.5 mM MgCl2 and 1 tablet of EDTA-free protease inhibitor). The cell lysates were cleared by centrifugation at 13,200 rpm at 4°C in a microcentrifuge for 10 minutes. Prior to immunoprecipitations, an aliquot of lysate was taken for SDS-PAGE and immunoblotting for pS6K1, S6K1 and tubulin. For anti-FLAG immunoprecipitations, the FLAG-M2 affinity gel was washed 3 times with Triton lysis buffer, and 30 μl of a 50/50 slurry of the FLAG-M2 affinity gel was then added to approximately 2 mg of clarified cell lysates and incubated with rotation for 3 hours at 4°C. Following immunoprecipitation, the beads were washed one time with Triton wash buffer containing 500 mM NaCl. Immunoprecipitated proteins were denatured, resolved by SDS-PAGE, and analyzed by immunoblotting.
Next, Sestrin2/GATOR2 protein-protein interactions in response to NV-5297 were measured using cell-free assays and in vitro. For this, HEK293T cells stably expressing flag-WDR24, a component of GATOR2 [44], were used. The cell-free assays utilized Sestrin2/GATOR2 complexes immunoprecipitated from amino acid-starved cells with an anti-flag antibody.

SesnTKO HEK293T cells = assay: mTORC1 activation (p70S6K1) in HEK293T cells null for all three Sestrin isoforms; conditions: leucine-starved 50 minutes, treatment 10 minutes
Experimental: (§1) All cell lines were cultured in DMEM (Corning, #MT10013CV) supplemented with 10% heat-inactivated FBS (Gibco, #16140–071). All cell lines were maintained at 37°C and 5% CO2. For amino acid starvation, cells were rinsed once with and incubated Amino acid-free RPMI (US Biologicals, #R8999-04A) supplemented with 10% dialyzed FBS (Gibco, #26400044) for 50 min followed by treatment with NV-5297, leucine, or vehicle for 10 minutes. For leucine starvation, cells were rinsed once with and incubated in leucine-free DMEM (AthenaES, #0420) supplemented with 10% dialyzed FBS (Gibco, #26400044) for 50 minuted followed by treatment with NV-5297, leucine, or vehicle for 10 minutes.
(§2) To ascertain if Sestrins and the GATOR pathway are required for NV-5297 activity, we tested mTORC1 activation in cells null for either all three Sestrin isoforms [SesnTKO] or for the GATOR1 component Npr13 [Npr13KO] [44]. […]
(§3) (A) Activation of the mTORC1 pathway by NV-5297. […] Representative immunoblots of ^T389pS6K1 and quantification of the normalized level of ^T389pS6K1 from 8 independent experiments (F) show TORC1 activity in unedited HEK-293T cells, HEK-293T cells deficient for Sestrin 1 (Sesn1), 2 (Sesn2) and 3 (Sesn3) (D) or HEK-293T cells deficient for the GATOR1 component Nprl3 (E) after 50 minutes leucine starvation followed by the addition of vehicle, NV-5297 or leucine for 10 minutes. […]

Npr13KO HEK293T cells = assay: mTORC1 activation (p70S6K1) in HEK293T cells null for GATOR1 component Nprl3; conditions: leucine-starved 50 minutes, treatment 10 minutes
Experimental: as §1, §2, §3

`CC(C)(C[C@H](N)C(=O)O)C(F)(F)F` [NV-5297, (S)-2-amino-5,5,5-trifluoro-4,4-dimethylpentanoic acid] was tested, and the “Sestrin2/GATOR2 interaction (GATOR2-associated Sestrin2)” value ([1]; added to cell cultures, leucine-starved flag-WDR24 HEK293T cells) was “disrupted the Sestrin2/GATOR2 interaction in a dose-dependent manner”, the “p70S6K1 (T389 pS6K1) level” value ([1]; leucine-starved flag-WDR24 HEK-293T cells, S1C Fig) was “increased p70S6K1 in a dose-dependent manner” and the p70S6K1 levels (SesnTKO HEK293T cells) was “remained unchanged”. For the same compound, the p70S6K1 levels (Npr13KO HEK293T cells) was “remained unchanged”.

From PMC9423655, “Huntington’s disease phenotypes are improved via mTORC1 modulation by small molecule therapy” (PLoS ONE, 2022)
